# Reference: ChEMBL document CHEMBL1121788, “Structure-activity studies on narcotic antagonists. 2. N-substituted ethyl 3-(m- or p-hydroxyphenyl) nipecotates” (1981)
# Columns and labels:
# Type in all cases: functional
# Mus musculus [1] = organism: Mus musculus; test: Compound was tested for antagonist activity against morphine sulfate by the mouse tail-flick method
# Mus musculus [2] = organism: Mus musculus; test: Analgesic activity in mice by the acetic acid writhing assay
# Mus musculus [3] = organism: Mus musculus; test: Analgesic activity in mice by the tail-flick method
# Mus musculus [4] = organism: Mus musculus; test: Analgesic activity in mice by the tail-flick method, activity expressed as ED50
Compound,AD50 (Mus musculus [1]),ED50 (Mus musculus [2]),ED50 (Mus musculus [3]),ED50 (Mus musculus [4])
C=CCN1CCCC(C(=O)OCC)(c2ccc(O)cc2)C1.Cl (configuration not stated),>307 µM/kg,10.4 µmol/kg,> 307 µmol/kg,–
Br.CCOC(=O)C1(c2cccc(O)c2)CCCN(CC2CC2)C1 (configuration not stated),18.8 µM/kg,4 µmol/kg,68 µmol/kg,–
CCCN1CCCC(C(=O)OCC)(c2cccc(O)c2)C1.O=P(O)(O)O (configuration not stated),59.3 µM/kg,5.59 µmol/kg,> 91 µmol/kg,–
CCCN1CCCC(C(=O)OCC)(c2ccc(O)cc2)C1.Cl (configuration not stated),140 µM/kg,62.5 µmol/kg,> 305 µmol/kg,–
Br.CCOC(=O)C1(c2cccc(O)c2)CCCN(C)C1 (configuration not stated),24.4 µM/kg,5.66 µmol/kg,–,> 290 µmol/kg
C=CCN1CC[C@]23c4c5ccc(O)c4O[C@H]2C(=O)CC[C@@]3(O)[C@H]1C5 [NALOXONE],–,–,0.08 µmol/kg,–
C=CCN1CCCC(C(=O)OCC)(c2cccc(O)c2)C1.O=P(O)(O)O (configuration not stated),>92 µM/kg,7.22 µmol/kg,> 229 µmol/kg,–
Br.CCOC(=O)C1(c2ccc(O)cc2)CCCN(C)C1 (configuration not stated),>290 µM/kg,22.9 µmol/kg,> 290 µmol/kg,–
CN1CC[C@]23c4c5ccc(O)c4O[C@H]2[C@@H](O)C=C[C@H]3[C@H]1C5 [MORPHINE],–,0.72 µmol/kg,4.9 µmol/kg,–
CCOC(=O)C1(c2ccc(O)cc2)CCCN(CC2CC2)C1.Cl (configuration not stated),>294 µM/kg,4.65 µmol/kg,100 µmol/kg,–
